{"source": "patent US7598403B2", "about": "“Synthesis of chromanones” (priority 2003, dated 2009)", "origin": "cited, not measured here", "tested_on": "day-old broiler chicks", "conditions": "administered to day-old broiler chicks (Lee et al., 1985)"}
{"smiles": "CC1(C)CC(=O)c2c(ccc(C(=O)CC(N)CO)c2N)O1", "note": "(racemic) [FC101, 5-amino-2,2-dimethyl-6-[3′-(R,S)amino-4′-hydroxy-butan-1-one]-2,3-dihydro-4H-1-benzopyran-4-one]", "values": [{"measurement": "induction of Avian Tibial Dyschondroplasia (ATD)", "result": "cause ATD"}]}
